7 compounds from PubChem BioAssay (NCI) can be followed below.

Each structure is given as a SMILES string. “And” between values parts separate entries of the source, which are not always exact repeats. Equal values may be shown once.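 These data come from cells grown in 96-well plates and exposed to compound for 48 hours at five concentrations. The concentration for 50% growth inhibition is given as GI50. TGI is the concentration that stops growth completely.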

What is called GI50 is the concentration giving 50% growth inhibition. The term TGI denotes the concentration at which net growth stops. A higher TGI goes with lower sensitivity of the cells.

Some test systems named below: EKVX NSCLC; SNB-75 CNS; HS 578T breast; NCI-H226 lung; LOX IMVI melanoma; SK-OV-3 ovarian; CAKI-1 renal; HL-60(TB) leukemia; NCI-H460 lung; OVCAR-3 ovarian.
Common to all, as to assay: DTP human tumour cell line panel, 48 h

Turning to `Oc1[nH]c(N=C2N=c3ccccc3=N2)c2ccccc12`, the GI50 is 4.22 µM in the experiment with EKVX NSCLC; 10.9 µM with SNB-75 CNS; 10.7 µM with HS 578T breast; 10.4 µM in the experiment with NCI-H226 lung; 4.78 µM in the experiment with LOX IMVI melanoma; 12.1 µM in the experiment on SK-OV-3 ovarian. Further, the GI50 in the experiment on CAKI-1 renal was 2.95 µM; with HL-60(TB) leukemia it was 13.7 µM; in the experiment on NCI-H460 lung, 3.01 µM; with OVCAR-3 ovarian it was 5.16 µM. Further, the TGI in the experiment on EKVX NSCLC stood at 52.2 µM; in the experiment on SNB-75 CNS, 31.5 µM; in the experiment with HS 578T breast it was 39.8 µM; in the experiment on NCI-H226 lung, 30 µM; with LOX IMVI melanoma it was 24.9 µM; with SK-OV-3 ovarian it was 27.7 µM. Further, the TGI came out at 21.7 µM in the experiment with CAKI-1 renal, 52.9 µM in the experiment with HL-60(TB) leukemia, 21 µM with NCI-H460 lung and 19.2 µM with OVCAR-3 ovarian.
Turning to `CC(CN(C)C)S(=O)(=O)c1ccc(-c2cnc(N)c(C(=O)Nc3ccccc3)n2)cc1` (stereo not given), the GI50 in the experiment on EKVX NSCLC was 31.1 µM; with SNB-75 CNS, 2.58 µM; in the experiment with HS 578T breast, 2.41 µM; in the experiment on NCI-H226 lung, 12.9 µM; with LOX IMVI melanoma, 2.82 µM; in the experiment with SK-OV-3 ovarian it was 6.04 µM. Further, the GI50 with CAKI-1 renal was 3.02 µM; with HL-60(TB) leukemia, 3.05 µM; in the experiment on NCI-H460 lung, 2.95 µM; with OVCAR-3 ovarian it was 5.83 µM. Further, the TGI with EKVX NSCLC is greater than 100 µM; in the experiment with SNB-75 CNS, 35.5 µM; with HS 578T breast, 27 µM; with NCI-H226 lung, 35.4 µM; with LOX IMVI melanoma, 16.7 µM; with SK-OV-3 ovarian it was greater than 54.5 µM. For the same compound, the TGI is greater than 50.8 µM with CAKI-1 renal, 11 µM in the experiment on HL-60(TB) leukemia, 22.2 µM with NCI-H460 lung and 32.9 µM in the experiment on OVCAR-3 ovarian.
As for `Nc1ncnc2c1c(-c1ccc(Oc3ccccc3)cc1)nn2C[C@H]1SSC[C@@H]1O`, the GI50 is 0.365 µM with EKVX NSCLC; 3.02 µM with SNB-75 CNS; 2.81 µM in the experiment on HS 578T breast; 1.73 µM in the experiment with NCI-H226 lung; 0.257 µM with LOX IMVI melanoma; 0.593 µM with SK-OV-3 ovarian. Besides, the GI50 in the experiment with CAKI-1 renal is 1.62 µM; in the experiment on HL-60(TB) leukemia, 1.52 µM; with NCI-H460 lung, 0.0445 µM; with OVCAR-3 ovarian, 0.251 µM. Also, the TGI is 12.1 µM with EKVX NSCLC; 14.8 µM in the experiment on SNB-75 CNS; 10.6 µM in the experiment with HS 578T breast; 5.15 µM in the experiment with NCI-H226 lung; 1.79 µM with LOX IMVI melanoma; 3.71 µM in the experiment with SK-OV-3 ovarian. Also, the total growth inhibition concentration (TGI) was found to be 12.7 µM in the experiment on CAKI-1 renal, 4.84 µM in the experiment with HL-60(TB) leukemia, 0.206 µM in the experiment with NCI-H460 lung and 0.684 µM with OVCAR-3 ovarian.
As to `O=P(O)(O)OCC1OC(n2cnc3c(NCc4ccco4)ncnc32)C(O)C1O` (stereo not given), the GI50 in the experiment on EKVX NSCLC is 2.82 µM; in the experiment on SNB-75 CNS, 4.18 µM; in the experiment with HS 578T breast, 0.802 µM; in the experiment on NCI-H226 lung, 7.13 µM; with LOX IMVI melanoma, 0.374 µM; with SK-OV-3 ovarian, 2.34 µM. Further, the GI50 in the experiment on CAKI-1 renal is 0.596 µM; with HL-60(TB) leukemia, 0.231 µM; with NCI-H460 lung, 3.04 µM; with OVCAR-3 ovarian it was 0.422 µM. Also, the TGI with EKVX NSCLC is greater than 41 µM; in the experiment with SNB-75 CNS, greater than 30.6 µM; in the experiment on HS 578T breast, 7.17 µM; in the experiment with NCI-H226 lung, greater than 56.5 µM; in the experiment with LOX IMVI melanoma it was 1.47 µM; in the experiment on SK-OV-3 ovarian it was 8.73 µM. Further, the TGI in the experiment with CAKI-1 renal turned out to be 3.01 µM; in the experiment with HL-60(TB) leukemia, 0.601 µM; in the experiment with NCI-H460 lung it was 21.4 µM; in the experiment with OVCAR-3 ovarian, 1.65 µM.
On to `Clc1ccccc1[C@@H]1C[C@@H]2Cc3cc(Br)c4ccccc4c3N1O2`, for which the GI50 in the experiment with EKVX NSCLC is 23.3 µM; with SNB-75 CNS it was 3.51 µM; in the experiment on HS 578T breast it was 3.04 µM; in the experiment with NCI-H226 lung, 3.65 µM; with LOX IMVI melanoma, 6.28 µM; in the experiment with SK-OV-3 ovarian, 3.79 µM. For the same compound, the GI50 in the experiment with CAKI-1 renal is 4.18 µM; in the experiment on HL-60(TB) leukemia, 4.4 µM; with NCI-H460 lung, 4.08 µM; with OVCAR-3 ovarian it was 3.29 µM. Further, the TGI in the experiment on EKVX NSCLC was greater than 100 µM; in the experiment on SNB-75 CNS, greater than 100 µM; in the experiment on HS 578T breast it was 8.82 µM; in the experiment with NCI-H226 lung it was greater than 100 µM; with LOX IMVI melanoma it was greater than 100 µM; with SK-OV-3 ovarian, greater than 100 µM. The TGI in the experiment with CAKI-1 renal is greater than 100 µM; with HL-60(TB) leukemia it was greater than 100 µM; in the experiment with NCI-H460 lung, greater than 100 µM; in the experiment on OVCAR-3 ovarian, 11.1 µM.
Turning to `CN(C)c1ccc(C(=N)c2ccc(N(C)C)cc2)cc1`, the GI50 is 5.33 µM and 5.17 µM with EKVX NSCLC; 1.65 µM and 1.63 µM in the experiment on SNB-75 CNS; 1.73 µM and 4.1 µM in the experiment on HS 578T breast; 7.81 µM and 9.07 µM in the experiment on NCI-H226 lung; 5.37 µM and 4.92 µM in the experiment on LOX IMVI melanoma; 3.55 µM and 2.92 µM in the experiment on SK-OV-3 ovarian. Further, the GI50 was 1.62 µM and 3.57 µM in the experiment on CAKI-1 renal; 3.3 µM in the experiment on HL-60(TB) leukemia; 3.01 µM and 3.54 µM in the experiment with NCI-H460 lung; 1.68 µM and 1.91 µM in the experiment on OVCAR-3 ovarian. Besides, the TGI was greater than 100 µM with EKVX NSCLC; 11.4 µM and 7.35 µM with SNB-75 CNS; 7.64 µM and 59.3 µM in the experiment with HS 578T breast; 51.6 µM and 47.2 µM in the experiment with NCI-H226 lung; 33 µM and 30.2 µM in the experiment with LOX IMVI melanoma; 16.6 µM and 22.3 µM with SK-OV-3 ovarian. Also, the TGI in the experiment on CAKI-1 renal is 14.6 µM and 68.5 µM; in the experiment on HL-60(TB) leukemia, 14.8 µM; in the experiment with NCI-H460 lung, 12.6 µM and 20 µM; in the experiment on OVCAR-3 ovarian, 5.26 µM and 7.3 µM.
As to `CCn1c(-c2c(Cl)cc(O)cc2Cl)cc2c(Cl)cc(O)cc21`, the concentration for total growth inhibition (TGI) is 58.5 µM in the experiment on EKVX NSCLC; 20.9 µM in the experiment with SNB-75 CNS; greater than 100 µM in the experiment on HS 578T breast; greater than 100 µM in the experiment with NCI-H226 lung; 32.8 µM in the experiment with LOX IMVI melanoma; 37.1 µM with SK-OV-3 ovarian. Also, the TGI in the experiment on CAKI-1 renal stood at 30.5 µM; with HL-60(TB) leukemia, 26.2 µM; in the experiment with NCI-H460 lung, 18.4 µM; with OVCAR-3 ovarian, 97 µM.
